From the supplement of paper PMC6580486

How the values were obtained:
[1] = test system: PCB490-3 (human epithelioid sarcoma primary culture)
Procedure: (§1)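 Roche open-access kinase inhibitor screen (223 compounds) on human epithelioid sarcoma primary cultures from three spatially distinct regions of tumor PCB490. 384-well plates, 72 h, CellTiter-Glo viability; IC50 by Hill curve fit. 100000 nM = no IC50 reached. Compound ids carry a plate-well prefix, which is stripped.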

[2] = test system: PCB490-4 (human epithelioid sarcoma primary culture)
Procedure: as §1

[3] = test system: PCB490-5 (human epithelioid sarcoma primary culture)
Procedure: as §1

Structure (SMILES) | IC50 cell viability [1] | IC50 cell viability [2] | IC50 cell viability [3]
O=C1NC(=NCc2ccccc2Br)S/C1=C\c1ccc2ncccc2c1 | > 100 µM | > 100 µM | > 100 µM
O=C1NC(=NCCc2ccccn2)S/C1=C\c1ccc2ncccc2c1 | > 100 µM | > 100 µM | > 100 µM
COc1cc(F)c(F)c(F)c1C(=O)c1cnc(NC2CCN(S(C)(=O)=O)CC2)nc1N | > 100 µM | 4.47 µM | 7.14 µM
Cn1c(=O)c(-c2ccccc2Cl)cc2cnc(NC3CCOCC3)nc21 | > 100 µM | > 100 µM | > 100 µM
COc1cc(F)c(F)cc1C(=O)c1cnc(NC2CCN(S(C)(=O)=O)CC2)nc1N | > 100 µM | > 100 µM | > 100 µM
Cn1cc(C2=C(c3cn(C)c4ccc(Cl)cc34)C(=O)NC2=O)c2ccccc21 | > 100 µM | > 100 µM | > 100 µM
Cn1cc(C2=C(c3cn(CCCO)c4ccccc34)C(=O)NC2=O)c2ccccc21 | > 100 µM | > 100 µM | > 100 µM
CC(=O)Nc1ccc2c(C3=C(c4cn(C)c5ccccc45)C(=O)NC3=O)cn(C)c2c1 | > 100 µM | 1.94 µM | > 100 µM
Cn1cc(C2=C(c3cn(C)c4cc(N)ccc34)C(=O)NC2=O)c2ccccc21 | > 100 µM | > 100 µM | > 100 µM
Fc1ccc(-c2c(-c3ccncc3)n(CCN3CCOCC3)c3cccnc23)cc1 | > 100 µM | > 100 µM | > 100 µM
C[C@H](O)CNc1cc(-c2[nH]c3cccnc3c2-c2ccc(F)cc2)ccn1 | > 100 µM | > 100 µM | > 100 µM
CC(C)c1[nH]nc2c1N=C(c1ccccc1Cl)c1cc([N+](=O)[O-])ccc1N2 | > 100 µM | > 100 µM | > 100 µM
COc1cccc(C2=C(c3c(C)n(C)c4ccccc34)C(=O)NC2=O)c1 | > 100 µM | > 100 µM | > 100 µM
Cn1cc(C2=C(c3cn(C)c4ccc(OCc5ccccc5)cc34)C(=O)NC2=O)c2ccccc21 | > 100 µM | > 100 µM | > 100 µM
CNCC1CCn2c(c(C3=C(c4cn(C)c5ccccc45)C(=O)NC3=O)c3ccccc32)C1 (stereo not given) | 0.89 µM | > 100 µM | > 100 µM
Cn1cc(C2=C(c3cccc(Cl)c3)C(=O)NC2=O)c2ccccc21 | > 100 µM | > 100 µM | > 100 µM
Nc1c(C(=O)c2ccc(-c3cccnc3)cc2)cnn1-c1ccc(F)cc1 | > 100 µM | > 100 µM | > 100 µM
O=C1NC(=NCCc2ccccc2Cl)S/C1=C\c1ccc2ncccc2c1 | > 100 µM | > 100 µM | > 100 µM
O=c1[nH]c2nc(NC3CCOCC3)ncc2cc1Oc1ccc(F)cc1F | > 100 µM | > 100 µM | > 100 µM
Cn1cc(C2=C(c3cccc(Br)c3)C(=O)NC2=O)c2ccccc21 | > 100 µM | > 100 µM | > 100 µM

Structure (SMILES) | IC50 cell viability [1] | IC50 cell viability [2] | IC50 cell viability [3]
COc1cccc2c1c(C1=C(c3cn(C)c4ccccc34)C(=O)NC1=O)cn2C | > 100 µM | > 100 µM | > 100 µM
Nc1c(C(=O)c2cccc(-c3ccncc3)c2)cnn1-c1ccc(F)cc1 | > 100 µM | > 100 µM | > 100 µM
CN1CCN(CC#Cc2cccc(C(=O)c3cnn(-c4ccc(F)cc4)c3N)c2)CC1 | > 100 µM | > 100 µM | > 100 µM
O=C1NC(=NCCc2ccc(Br)cc2)S/C1=C\c1ccc2ncccc2c1 | > 100 µM | > 100 µM | > 100 µM
CCn1c(=O)c(Oc2ccc(F)cc2F)cc2cnc(NC3CCOCC3)nc21 | > 100 µM | > 100 µM | > 100 µM
CC(C)(O)Cn1c(=O)c(Oc2ccc(F)cc2F)cc2cnc(NC3CCOCC3)nc21 | 2.86 µM | > 100 µM | > 100 µM
Cn1cc(C2=C(c3cn(C)c4cc(C(N)=O)ccc34)C(=O)NC2=O)c2ccccc21 | > 100 µM | > 100 µM | > 100 µM
O=C1NC(=N[C@H](CO)Cc2ccccc2)S/C1=C\c1ccc2ncccc2c1 | > 100 µM | > 100 µM | > 100 µM
O=C1NC(=N[C@H](CO)c2ccccc2)S/C1=C\c1ccc2ncccc2c1 | > 100 µM | > 100 µM | > 100 µM
Cn1cc(C2=C(c3cn(C)c4c([N+](=O)[O-])cccc34)C(=O)NC2=O)c2ccccc21 | > 100 µM | > 100 µM | > 100 µM
O=C1NC(=NCCc2ccc(F)cc2)S/C1=C\c1ccc2ncccc2c1 | > 100 µM | > 100 µM | > 100 µM
Nc1c(C(=O)c2cccc(CCC3(O)CCCC3)c2)cnn1-c1ccc(F)cc1 | > 100 µM | > 100 µM | > 100 µM
O=C1NC(O)C(c2c[nH]c3ccccc23)=C1c1c[nH]c2ccccc12 (stereo not given) | > 100 µM | > 100 µM | > 100 µM
Cn1c(=O)c(Oc2ccc(F)cc2)cc2cnc(NC3CCOCC3)nc21 | > 100 µM | > 100 µM | > 100 µM
Cn1cc(C2=C(Oc3ccccc3)C(=O)NC2=O)c2ccccc21 | > 100 µM | > 100 µM | > 100 µM
Cn1c(=O)c(Oc2ccc(F)cc2F)cc2cnc(NC3CCC(O)CC3)nc21 (stereo not given) | > 100 µM | > 100 µM | > 100 µM
Cn1cc(C2=C(c3c4n(c5ccccc35)CCCCC4)C(=O)NC2=O)c2ccccc21 | > 100 µM | > 100 µM | > 100 µM
O=C1NC(=NCCc2cccc(F)c2)S/C1=C\c1ccc2ncccc2c1 | > 100 µM | > 100 µM | > 100 µM
COc1ccc(F)cc1C(=O)c1cnc(NC2CCN(S(C)(=O)=O)CC2)nc1N | > 100 µM | > 100 µM | > 100 µM
Cn1cc(C2=C(c3ccc(N)cc3)C(=O)NC2=O)c2ccccc21 | > 100 µM | > 100 µM | > 100 µM

Structure (SMILES) | IC50 cell viability [1] | IC50 cell viability [2] | IC50 cell viability [3]
Cn1cc(C2=C(c3ccc(OCC(O)CO)cc3)C(=O)NC2=O)c2ccccc21 (stereo not given) | > 100 µM | > 100 µM | > 100 µM
Cn1cc(C2=C(c3cn(C)c4c(N)cccc34)C(=O)NC2=O)c2ccccc21 | > 100 µM | > 100 µM | > 100 µM
CCOc1ccccc1CCN=C1NC(=O)/C(=C/c2ccc3ncccc3c2)S1 | > 100 µM | > 100 µM | > 100 µM
Cn1cc(C2=C(c3cn(C)c4ccccc34)C(=O)NC2=O)c2ccccc21 | > 100 µM | > 100 µM | > 100 µM
NC1=NC(=O)/C(=C/c2ccc3ncccc3c2)S1 | > 100 µM | > 100 µM | > 100 µM
CC(=O)N[C@@H](Cc1ccc(OP(=O)(O)O)cc1)C(=O)N[C@H]1CCC(=O)N2CCC[C@@H](C(=O)NCc3ccc(Cl)cc3)N2C1=O | > 100 µM | > 100 µM | > 100 µM
Cn1cc(C2=C(c3cn(CCO)c4ccccc34)C(=O)NC2=O)c2ccccc21 | > 100 µM | > 100 µM | > 100 µM
Cn1cc(C2=C(c3cn(C)c4cc(Cl)ccc34)C(=O)NC2=O)c2ccccc21 | > 100 µM | > 100 µM | > 100 µM
Fc1ccc(-c2c(-c3ccncc3)[nH]c3nccnc23)cc1 | > 100 µM | > 100 µM | > 100 µM
Cn1c(=O)c(Sc2ccccc2F)cc2cnc(NC3CCOCC3)nc21 | > 100 µM | > 100 µM | > 100 µM
Nc1c(C(=O)c2cccc(C#CCN3CCOCC3)c2)cnn1-c1ccc(F)cc1 | > 100 µM | > 100 µM | > 100 µM
CC(C)(O)CCc1cccc(C(=O)c2cnn(-c3ccc(F)cc3)c2N)c1 | > 100 µM | > 100 µM | > 100 µM
Nc1c(C(=O)c2cccc(CCS(N)(=O)=O)c2)cnn1-c1ccc(F)cc1 | > 100 µM | > 100 µM | > 100 µM
Cc1nc2sc3c(N)ncnc3c2c(C)c1C | > 100 µM | > 100 µM | > 100 µM
Cn1cc(C2=C(c3c4n(c5ccccc35)CCN(C(N)=S)C4)C(=O)NC2=O)c2ccccc21 | > 100 µM | > 100 µM | > 100 µM
O=C1NC(=NCc2cccs2)SC1Cc1ccc2ncccc2c1 (stereo not given) | > 100 µM | > 100 µM | > 100 µM
Cc1[nH]nc2c1N=C(c1ccccc1Cl)c1cc([N+](=O)[O-])ccc1N2 | > 100 µM | > 100 µM | > 100 µM
Cn1cc(C2=C(n3ccc4ccccc43)C(=O)NC2=O)c2ccccc21 | > 100 µM | > 100 µM | > 100 µM
Nc1c(C(=O)c2cccc(CCCN3CCOCC3)c2)cnn1-c1ccc(F)cc1 | > 100 µM | > 100 µM | > 100 µM
N#CCn1c(=O)c(Oc2ccc(F)cc2F)cc2cnc(NC3CCOCC3)nc21 | > 100 µM | > 100 µM | > 100 µM
